Source: patent publication US20250145585A1, “HETEROCYCLIC INHIBITORS OF IGF-1R FOR TREATMENT OF DISEASE” (HORIZON THERAPEUTICS IRELAND DAC, priority 2023, published 2025)

What was measured:
IGF-1R [1] = molecular target: T1, IGF-1R (Homo sapiens, UniProt P08069); assay: Example B-2: IGF-1R Assay (PathHunter cell lines, EC80 agonist challenge, chemiluminescent detection); format: cell-based; details: PathHunter cells, compound 60 minutes at 37° C., EC80 agonist 3 hours; read-out: IC50, Biological Activity against IGF-1R (Table B2)
T1 construct: expressed in transfected cells
Outline: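 PathHunter cells were pre-incubated with compound for 60 min at 37° C (1% vehicle), then challenged with EC80 agonist for 3 h at room temperature. Chemiluminescent detection after 1 h gave % inhibition relative to EC80 and vehicle controls, from which IC50 was derived.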

IGF-1R [2] = molecular target: T1, IGF-1R; assay: Example B-1: IGF-1R Assay (PC3 cells stimulated with IGF1, AlphaLISA on cell lysates); format: cell-based; details: compound two hours, IGF1 200 ng/mL for 30 min, read-out: IC50, Biological Activity against IGF-1R (Table B1)
Outline: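 PC3 cells serum-starved 2 h, treated 2 h with 3-fold serially diluted compound, then stimulated 30 min with IGF1 (200 ng/mL final). Lysates analysed by AlphaLISA; % inhibition calculated relative to vehicle and EC80 controls, IC50 derived.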

T1 sequence (P08069 31-1367): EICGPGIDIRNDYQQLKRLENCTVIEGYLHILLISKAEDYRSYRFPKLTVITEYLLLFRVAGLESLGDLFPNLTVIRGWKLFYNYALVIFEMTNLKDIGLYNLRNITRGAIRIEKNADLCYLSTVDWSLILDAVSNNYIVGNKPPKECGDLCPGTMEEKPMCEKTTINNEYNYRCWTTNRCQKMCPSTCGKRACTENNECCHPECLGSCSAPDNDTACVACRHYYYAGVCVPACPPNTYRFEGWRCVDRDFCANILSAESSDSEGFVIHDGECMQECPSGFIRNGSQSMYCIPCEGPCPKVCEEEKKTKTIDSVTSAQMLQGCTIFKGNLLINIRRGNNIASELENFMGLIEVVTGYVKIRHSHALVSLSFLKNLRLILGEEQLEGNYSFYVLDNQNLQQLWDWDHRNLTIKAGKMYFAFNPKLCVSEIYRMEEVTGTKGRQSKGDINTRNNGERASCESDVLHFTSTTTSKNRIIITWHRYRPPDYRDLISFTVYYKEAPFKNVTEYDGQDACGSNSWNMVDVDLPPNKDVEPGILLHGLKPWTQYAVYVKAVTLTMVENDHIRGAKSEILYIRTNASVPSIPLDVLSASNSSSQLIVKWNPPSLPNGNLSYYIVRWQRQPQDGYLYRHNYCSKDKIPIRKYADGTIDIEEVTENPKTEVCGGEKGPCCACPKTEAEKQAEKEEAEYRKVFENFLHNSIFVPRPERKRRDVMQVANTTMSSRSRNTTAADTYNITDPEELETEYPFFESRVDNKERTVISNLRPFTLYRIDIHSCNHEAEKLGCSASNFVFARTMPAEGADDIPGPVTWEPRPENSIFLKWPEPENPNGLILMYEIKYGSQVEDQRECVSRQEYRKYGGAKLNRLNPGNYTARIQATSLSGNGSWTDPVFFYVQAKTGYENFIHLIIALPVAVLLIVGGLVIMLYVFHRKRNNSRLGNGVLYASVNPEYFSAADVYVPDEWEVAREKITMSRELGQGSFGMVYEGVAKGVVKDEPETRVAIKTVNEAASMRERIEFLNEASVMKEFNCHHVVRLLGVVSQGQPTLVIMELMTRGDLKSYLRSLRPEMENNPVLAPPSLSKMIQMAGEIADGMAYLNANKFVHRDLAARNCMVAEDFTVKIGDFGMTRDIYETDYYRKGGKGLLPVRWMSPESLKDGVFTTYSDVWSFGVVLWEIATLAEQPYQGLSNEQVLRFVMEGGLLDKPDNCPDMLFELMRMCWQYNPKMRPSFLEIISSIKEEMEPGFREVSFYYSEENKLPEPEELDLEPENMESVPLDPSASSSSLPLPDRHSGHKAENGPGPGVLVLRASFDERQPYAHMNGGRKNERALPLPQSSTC

| IC50 (IGF-1R [1]) [nM] | IC50 (IGF-1R [2]) [nM] | Compound |
| --- | --- | --- |
| 500 to 2000 | 500 to 2000 | CC1(C)C(=O)N(c2ccc(SC(F)(F)F)cc2)C(=O)N1Cc1ccnc(N)c1P(C)(C)=O [Compound 389, 1-((2-amino-3-(dimethylphosphoryl)pyridin-4-yl)methyl)-5,5-dimethyl-3-(4-((trifluoromethyl)thio)phenyl) imidazolidine-2,4-dione] |
| 500 to 2000 | 500 to 2000 | CC1(C)C(=O)N(c2ccc(C3(C(F)(F)F)CC3)cc2)C(=O)N1Cc1ccnc(NC2CCS(=O)(=O)CC2)c1 [Compound 133, 1-((2-((1,1-dioxidotetrahydro-2H-thiopyran-4-yl)amino)pyridin-4-yl)methyl)-5,5-dimethyl-3-(4-(1-(trifluoromethyl)cyclopropyl)phenyl) imidazolidine-2,4-dione] |
| 500 to 2000 | ≤ 500 | C[C@@H](CC#N)Nc1cc(CN2C(=O)N(c3ccc(C(C)(C)C)cc3)C(=O)C2(C)C)ccn1 [Compound 278, (S)-3-((4-((3-(4-(tert-butyl)phenyl)-5,5-dimethyl-2,4-dioxoimidazolidin-1-yl)methyl)pyridin-2-yl)amino)butanenitrile] |
| ≤ 500 | ≤ 500 | CC1CC(Nc2cc(CN3C(=O)N(c4ccc(C5(C(F)(F)F)CC5)cc4)C(=O)C3(C)C)ccn2)CCO1 (stereo not shown) [Compound 127, 5,5-dimethyl-1-((2-((2-methyltetrahydro-2H-pyran-4-yl)amino)pyridin-4-yl)methyl)-3-(4-(1-(trifluoromethyl)cyclopropyl)phenyl) imidazolidine-2,4-dione] |
| ≤ 500 | ≤ 500 | CC1(C)C(=O)N(c2ccc(SC(F)(F)F)cc2)C(=O)N1Cc1ccnc2[nH]ccc12 [Compound 1, 1-((1H-pyrrolo[2,3-b]pyridin-4-yl)methyl)-5,5-dimethyl-3-(4-((trifluoromethyl)thio)phenyl)imidazolidine-2,4-dione] |
| 2000 to 10000 | 500 to 2000 | CN1C(=O)C(C)(C)c2ccc(N3C(=O)N(Cc4ccnc(N)c4)C(C)(C)C3=O)cc21 [Compound 110, 1-((2-aminopyridin-4-yl)methyl)-5,5-dimethyl-3-(1,3,3-trimethyl-2-oxoindolin-6-yl)imidazolidine-2,4-dione] |
| ≤ 500 | ≤ 500 | CC1(C)C(=O)N(c2ccc(SC(F)(F)F)cc2)C(=O)N1Cc1ccnc(NC(=O)Nc2cccc(F)c2)c1 [Compound 373, 1-(4-((5,5-dimethyl-2,4-dioxo-3-(4-((trifluoromethyl)thio)phenyl)imidazolidin-1-yl)methyl)pyridin-2-yl)-3-(3-fluorophenyl)urea] |
| 500 to 2000 | 500 to 2000 | CC(C)Nc1cc(CN2C(=O)N(c3ccc(SC(F)(F)F)nc3)C(=O)C2(C)C)ccn1 [Compound 392, 1-((2-(isopropylamino)pyridin-4-yl)methyl)-5,5-dimethyl-3-(6-((trifluoromethyl)thio)pyridin-3-yl)imidazolidine-2,4-dione] |
| 2000 to 10000 | 2000 to 10000 | CC(C)Nc1cc(CN2C(=O)N(c3ccc(SC(F)(F)F)cc3)C(=O)C2(C)CO)ccn1 (stereo not shown) [Compound 299, 5-(hydroxymethyl)-1-((2-(isopropylamino)pyridin-4-yl)methyl)-5-methyl-3-(4-((trifluoromethyl)thio)phenyl)imidazolidine-2,4-dione] |
| ≤ 500 | ≤ 500 | CC(c1ccnc(N)c1)N1C(=O)N(c2ccc(C3(C(F)(F)F)CC3)cc2)C(=O)C1(C)C (stereo not shown) [Compound 135, 1-(1-(2-aminopyridin-4-yl)ethyl)-5,5-dimethyl-3-(4-(1-(trifluoromethyl)cyclopropyl)phenyl) imidazolidine-2,4-dione] |
| ≤ 500 | ≤ 500 | CC(C)Nc1cc(CN2C(=O)N(c3ccc4c(c3)N(C)CC43CCC3)C(=O)C2(C)C)ccn1 [Compound 191, 1-((2-(isopropylamino)pyridin-4-yl)methyl)-5,5-dimethyl-3-(1′-methylspiro[cyclobutane-1,3′-indolin]-6′-yl)imidazolidine-2,4-dione] |
| ≤ 500 | ≤ 500 | C[C@@H](CC#N)Nc1cc(CN2C(=O)N(c3ccc(C4(C(F)(F)F)CC4)cc3)C(=O)C2(C)C)ccn1 [Compound 139, (S)-3-((4-((5,5-dimethyl-2,4-dioxo-3-(4-(1-(trifluoromethyl)cyclopropyl)phenyl)imidazolidin-1-yl)methyl)pyridin-2-yl)amino)butanenitrile] |
| ≤ 500 | ≤ 500 | CC1(C)C(=O)N(c2ccc(C3(C(F)(F)F)CC3)cc2)C(=O)N1Cc1ccnc2c1OCCN2 [Compound 17, 1-((3,4-dihydro-2H-pyrido[3,2-b][1,4]oxazin-8-yl)methyl)-5,5-dimethyl-3-(4-(1-(trifluoromethyl)cyclopropyl)phenyl) imidazolidine-2,4-dione] |
| ≤ 500 | ≤ 500 | CC1(C)C(=O)N(c2ccc(S(=O)(=O)C(F)(F)F)cc2)C(=O)N1Cc1ccnc2[nH]ccc12 [Compound 22, 1-((1H-pyrrolo[2,3-b]pyridin-4-yl)methyl)-5,5-dimethyl-3-(4-((trifluoromethyl)sulfonyl)phenyl) imidazolidine-2,4-dione] |
| ≤ 500 | ≤ 500 | CC1(C)C(=O)N(c2ccc(S(=O)(=O)C(F)(F)F)cc2)C(=O)N1Cc1ccnc(N[C@H]2[C@@H]3COC[C@@H]32)c1 [Compound 319, 1-((2-(((1R,5S,6r)-3-oxabicyclo[3.1.0]hexan-6-yl)amino)pyridin-4-yl)methyl)-5,5-dimethyl-3-(4-((trifluoromethyl)sulfonyl)phenyl) imidazolidine-2,4-dione] |
| ≤ 500 | ≤ 500 | CC(C)Nc1cc(CN2C(=O)N(c3ccc(C4(C#N)CCC4)cc3)C(=O)C2(C)C)ccn1 [Compound 107, 1-(4-(3-((2-(isopropylamino)pyridin-4-yl)methyl)-4,4-dimethyl-2,5-dioxoimidazolidin-1-yl)phenyl)cyclobutane-1-carbonitrile] |
| ≤ 500 | ≤ 500 | CC1(C)C(=O)N(c2ccc(C3(C(F)(F)F)CC3)cc2)C(=O)N1Cc1ccnc(N[C@H]2CCOC2)c1 [Compound 119, (S)-5,5-dimethyl-1-((2-((tetrahydrofuran-3-yl)amino)pyridin-4-yl)methyl)-3-(4-(1-(trifluoromethyl)cyclopropyl)phenyl) imidazolidine-2,4-dione] |
| ≤ 500 | ≤ 500 | CC1(C)C(=O)N(c2ccc(C3(C(F)(F)F)CC3)cc2)C(=O)N1Cc1ccnc2c1CC(=O)N2 [Compound 13, 5,5-dimethyl-1-((2-oxo-2,3-dihydro-1H-pyrrolo[2,3-b]pyridin-4-yl)methyl)-3-(4-(1-(trifluoromethyl)cyclopropyl)phenyl)imidazolidine-2,4-dione] |
| ≤ 500 | ≤ 500 | CC(C)Nc1cc(CN2C(=O)N(c3ccc(C4(C)CC4(F)F)cc3)C(=O)C2(C)C)ccn1 (stereo not shown) [Compound 124, 3-(4-(2,2-difluoro-1-methylcyclopropyl)phenyl)-1-((2-(isopropylamino)pyridin-4-yl)methyl)-5,5-dimethylimidazolidine-2,4-dione] |
| 2000 to 10000 | 2000 to 10000 | CC(C)Nc1cc(CN2C(=O)N(c3ccc4c(c3)S(=O)(=O)CC4(C)C)C(=O)C2(C)C)ccn1 [Compound 190, 3-(3,3-dimethyl-1,1-dioxido-2,3-dihydrobenzo[b]thiophen-6-yl)-1-((2-(isopropylamino)pyridin-4-yl)methyl)-5,5-dimethylimidazolidine-2,4-dione] |
| ≤ 500 | > 10000 | Cc1c(CN2C(=O)N(c3ccc(C4(C(F)(F)F)CC4)cc3)C(=O)C2(C)C)ccnc1NC(C)C [Compound 122, 1-((2-(isopropylamino)-3-methylpyridin-4-yl)methyl)-5,5-dimethyl-3-(4-(1-(trifluoromethyl)cyclopropyl)phenyl)imidazolidine-2,4-dione] |
| 2000 to 10000 | 2000 to 10000 | CC(C)Nc1cc(CN2C(=O)N(c3ccc4c(c3)N(C)C(=O)C43CC3)C(=O)C2(C)C)ccn1 [Compound 185, 1-((2-(isopropylamino)pyridin-4-yl)methyl)-5,5-dimethyl-3-(1′-methyl-2′-oxospiro[cyclopropane-1,3′-indolin]-6′-yl)imidazolidine-2,4-dione] |
| 500 to 2000 | ≤ 500 | COC1(c2ccc(N3C(=O)N(Cc4ccnc(NC(C)C)c4)C(C)(C)C3=O)cc2)CC1 [Compound 104, 1-((2-(isopropylamino)pyridin-4-yl)methyl)-3-(4-(1-methoxycyclopropyl)phenyl)-5,5-dimethylimidazolidine-2,4-dione] |
| ≤ 500 | ≤ 500 | CC1(C)C(=O)N(c2ccc(SC(F)(F)F)cc2)C(=O)N1Cc1ccnc(N)c1Br [Compound 388, 1-((2-amino-3-bromopyridin-4-yl)methyl)-5,5-dimethyl-3-(4-((trifluoromethyl)thio)phenyl)imidazolidine-2,4-dione] |
| 2000 to 10000 | 500 to 2000 | CC(C)(O)c1ccc(N2C(=O)N(Cc3ccnc(N)c3)C(C)(C)C2=O)cc1 [Compound 88, 1-((2-aminopyridin-4-yl)methyl)-3-(4-(2-hydroxypropan-2-yl)phenyl)-5,5-dimethylimidazolidine-2,4-dione] |
| ≤ 500 | ≤ 500 | CC(C)Nc1cc(CN2C(=O)N(c3ccc4c(c3)OCC4(C)C)C(=O)C2(C)C)ccn1 [Compound 189, 3-(3,3-dimethyl-2,3-dihydrobenzofuran-6-yl)-1-((2-(isopropylamino)pyridin-4-yl)methyl)-5,5-dimethylimidazolidine-2,4-dione] |
